# Results published in PubChem BioAssay AID743417 (Broad Institute, 2014).
# Where “and” joins values, the source holds several entries; their conditions need not be identical. Identical values can stand only once. Records with an inconclusive call do not appear.
# Test system: Clone20 osteoblast Shn3 3'UTR firefly luciferase, 24 h
# Assay: Schnurri-3 3'UTR-luciferase signal suppressors – cell-based, Clone20 osteoblasts, luminescence, dry powder, set 2, dose response (AID 743417)
row,Structure (SMILES),AC50
1,CC[C@]12c3[nH]c4cc(CCC(=O)N(C)C)ccc4c3CCN1C(=O)[C@@H](CC(=O)NC/C=C(\C)CCC=C(C)C)C[C@@H]2C(=O)N1CCN(C(=O)c2ccco2)CC1,1.68 µM
2,Clc1ccc(-c2cc(-c3nnc4n3CCCCC4)c3ccccc3n2)cc1,5.59 µM
3,CC(=O)NC(c1ccc(C(C)C)cc1)c1ccc2cccnc2c1O (configuration not stated),0.528 µM
4,O=S(=O)(c1ccccc1C(F)(F)F)N1CCN(c2ncnc3sccc23)CC1,3.44 µM
5,COc1ccc(NS(=O)(=O)c2ccc(N3CCCCC3)c(N)c2)cc1,0.824 µM
6,O=C(Nc1ccc([N+](=O)[O-])cc1)Nc1ccc(OC(F)F)c(Cl)c1,3.59 µM
7,CC(=O)c1cccc(-c2csc3ncnc(Sc4nnnn4C)c23)c1,4.72 µM
8,CC(=O)OCCNc1cc(Sc2nc3ccccc3[nH]2)c2nonc2c1[N+](=O)[O-],1.86 µM
9,Cc1ccccc1C(=O)N1CCN(c2ccc(NC(=O)c3ccc([N+](=O)[O-])o3)cc2)CC1,0.864 µM
10,O=C(c1cnc(N2CCN(c3ccccn3)CC2)c2ccccc12)N1CCN(c2cccc(Cl)c2)CC1,1.99 µM
11,COc1ccc(CN2CCC(N(CCc3ccccc3)Cc3ccccc3)CC2)c(OC)c1,8.1 µM
12,O=C(c1cc(COc2c(F)cccc2F)on1)N1CCC(c2ccncc2)CC1,1.6 µM
13,O=C(Nc1ccc(Cc2ccncc2)cc1)c1ccc([N+](=O)[O-])o1,2.71 µM
14,Cc1ccc(Cn2ccc(=O)c(OCc3c(Cl)cccc3Cl)c2C)cc1,6.11 µM
15,O=C1C=C(N2CCOCC2)c2ccccc2C1=O,7.16 µM
16,Cc1ccc(NC(=O)c2ccc(Cl)c(N3C(=O)C=CC3=O)c2)cc1,1.6 µM
17,Clc1ccc(C[n+]2cc(-c3ccccc3)n3c2CCCCC3)c(Cl)c1,1.2 µM
18,Cc1onc(-c2ccccc2Cl)c1C(=O)N(C)C1CCCCC1,2.74 µM
19,O=C(c1ccc(Cn2c(=S)[nH]c3ccccc3c2=O)cc1)N1CCN(c2ccccn2)CC1,6.34 µM
20,C[C@@H]1C[C@@H]2O[C@H]2/C=C\C=C\C(=O)Cc2c(Cl)c(O)cc(O)c2C(=O)O1,6.4 µM
21,COc1cc(SC)ccc1C(=O)Nc1nc2ccccc2[nH]1,< 0.26 µM
22,CC(C)N=C(N)N=C(N)Nc1ccc(Cl)cc1,0.37 µM

row,Structure (SMILES),AC50
1,Cc1cccc(C)c1NC(=O)CN(C)C(=O)c1cccc(S(=O)(=O)N2CCN(c3ccc(F)cc3)CC2)c1,2.2 µM
2,CCCCN1C2=NCCCN2c2cc(C)c(C)cc21,0.803 µM
3,CCCCC1(Cc2ccc([N+](=O)[O-])cc2)C(=O)N(c2ccccc2)N(c2ccccc2)C1=O,10.2 µM
4,COc1ccc(Cn2c(SCc3cc(C)ccc3C)nc3cc(OC)c(OC)cc3c2=N)cc1,7.91 µM
5,CC1=NNC(=O)/C1=C\c1cn(-c2ccccc2)nc1-c1ccccc1,8.42 µM
6,COc1ccccc1CNc1nc(NCC2CC2)nc2ccsc12,4.16 µM
7,CCCCCCCCNC(C)C(O)c1ccc(SC(C)C)cc1 (configuration not stated),3.94 µM
8,COc1cccc(CN(C)C(=O)c2cccc(S(=O)(=O)N3CCN(Cc4ccccc4)CC3)c2)c1OC,4.94 µM
9,CC(C)(C)c1ccc(-n2ncc3c2CCCC3NC(=O)C2(C(N)=O)CC2)cc1 (configuration not stated),0.589 µM
10,Oc1cc(-c2ccncc2)cc2cccnc12,5.4 µM
11,CCCNC(=O)c1nnsc1S(=O)(=O)c1ccc(Cl)cc1,3.63 µM
12,COC(=O)C1=C(c2ccc(F)cc2OCc2ccccc2)C[C@@H]2CC[C@H]1N2C(=O)NCc1ccc(C(F)(F)F)cc1,9.14 µM
13,COc1ccc(OC)c(NC(=O)CN(Cc2ccc(F)cc2)C2CCCCC2)c1,4.99 µM
14,COc1ccc(-n2nnnc2-c2cnc(N3CCCC3)nc2C(F)(F)F)cc1,4.75 µM
15,O=C1C=CC(=O)N1CCNc1ncc(C(F)(F)F)cc1Cl,0.947 µM
16,COc1cc(OC)c(OC)cc1/C=C1\CC(C)C/C(=C\c2cc(OC)c(OC)cc2OC)C1=O (configuration not stated),3.22 µM
17,CCOC(=O)c1ccc(NC(=O)c2nc[nH]c2C(=O)NCCNC(=O)c2[nH]cnc2C(=O)Nc2ccc(C(=O)OCC)cc2)cc1,5.51 µM
18,O=C1CC(c2ccccc2)CC(O)=C1C=Nc1cccc(Cl)c1 (configuration not stated),4.94 µM
19,CC(Sc1nc2ccccc2c(=O)n1C)C(=O)Nc1ccc2c(c1)OCCO2 (configuration not stated),1.94 µM
20,COc1ccc(Nc2cc(C)nc(NCc3ccccc3)n2)cc1,3.9 µM
21,CN(C)CCNC(=O)c1cccc2nc3cccc(F)c3nc12,13.7 µM
22,CN(CCOc1ccc(Cl)cc1)C(=O)c1cccc(S(=O)(=O)N2CCN(c3ccc(F)cc3)CC2)c1,1.77 µM

row,Structure (SMILES),AC50
1,Cc1nn(Cc2ccc(Cl)cc2)c(C)c1NC(=O)c1cc(C(C)C)on1,6.2 µM
2,COc1ccc(CC(N)c2csc(NC(=O)Nc3ccc(C(C)C)cc3)n2)cc1 (configuration not stated),5.16 µM
3,Cc1cccc(C)c1-n1nnnc1C(c1cc2ccccc2o1)N1CCC(n2c(=O)[nH]c3ccccc32)CC1 (configuration not stated),3.05 µM
4,CCCCNc1c(-c2ccc(OC)c(Sc3ccc(OC)cc3)c2)nc2ccccn12,0.821 µM
5,CCOC(=O)Cn1c(S(=O)(=O)Cc2ccccc2Cl)nc(-c2ccccc2)c1-c1ccccc1,9.29 µM
6,Cc1ccc(NC(=O)C2CCN(S(=O)(=O)c3ccc(N4CCCC4=O)cc3)CC2)cc1Cl,0.549 µM
7,CCOC(=O)c1nc(S(C)(=O)=O)ncc1Cl,6.37 µM
8,COc1ccc(CCNc2c(C)c(C)nc3ncnn23)cc1,0.565 µM
9,C=CCOc1nc2c(c(=O)n(C)c(=O)n2C)n1Cc1ccc(Cl)cc1Cl,2.15 µM
10,CCCCOC(=O)c1[nH]c2c(c1C)C(=O)CC(c1cc(OC)c(OC)c(OC)c1)C2 (configuration not stated),1.35 µM
11,Cn1cc(CN(CCO)Cc2cccs2)c(-c2cccc(Cl)c2)n1,3.25 µM
12,CCC(C)NS(=O)(=O)c1ccc(S(=O)(=O)N2CCCC3(CCCCC3)C2)cc1 (configuration not stated),3.44 µM
13,CCOC(=O)c1sc(NC(=O)CCCn2nc([N+](=O)[O-])c(Cl)c2C)c(C(=O)OCC)c1C,6.34 µM
14,CCN(CC)c1ccc(/C=C2/SC(=O)N(C(C)C)C2=O)o1,3.46 µM
15,O=C(Nc1cccc(F)c1)c1cc(S(=O)(=O)NCCC2=CCCCC2)ccc1F,4.16 µM
16,COc1ccc(C(C(=O)NC2CCCCC2)N(C(=O)CCl)c2ccc(OC)cc2)cc1 (configuration not stated),5.56 µM
17,Cc1ccc(S(=O)(=O)N2CCc3ccccc3CC2)cc1,3.29 µM
18,Cn1nccc1C(=O)NC1CCCc2c1cnn2-c1ccccc1F (configuration not stated),0.37 µM
19,O=C(NCc1cccc(Cl)c1)c1cc(COc2ccc3ncccc3c2)on1,3.05 µM
20,CNc1ccccc1C(C)(C)c1cc(-c2cccc(Br)c2)no1,2 µM
21,CCOc1cc(N2CCOCC2)c(OCC)cc1NC(=O)c1cc(-c2ccco2)nc2ccccc12,8.94 µM
22,COc1cc(NS(=O)(=O)c2ccc(C)cc2)c2ncccc2c1,3.35 µM

row,Structure (SMILES),AC50
1,O=C(Nc1ccccc1)Nc1cc(OCC(F)(F)F)cc(OCC(F)(F)F)c1,6.4 µM
2,COc1ccc(NC(=O)CCOc2cc(C)ccc2C)cc1S(=O)(=O)N1CCCCC1,10.4 µM
3,NC(=O)c1cc(N2C(=O)C=CC2=O)ccc1Cl,11.3 µM
4,Cc1ccc(Cl)cc1N1CCN(C(=O)C2CCC(=O)N(C3CCCCCC3)C2)CC1 (configuration not stated),3.14 µM
5,CC(C)C(=O)NC(c1cccc([N+](=O)[O-])c1)c1ccc2cccnc2c1O (configuration not stated),2.57 µM
6,COc1ccc(S(=O)(=O)N2CCN(C(=O)c3cc(-c4ccc(Br)cc4)n[nH]3)CC2)cc1OC,4.55 µM
7,c1csc(CNc2ncnc3sccc23)c1,1.8 µM
8,CC(C)C[C@H](N)c1nnc(S(=O)(=O)Cc2ccc(F)cc2)o1,9.02 µM
9,Oc1c(CN2CCN(c3ccccc3)CC2)cc(Br)c2cccnc12,1.92 µM
10,Cc1ccc(-c2nc(NC(=O)c3nn(C)cc3[N+](=O)[O-])sc2C)cc1,1.3 µM
11,Nc1nonc1C(=O)NCCNCc1cc(Br)ccc1OCc1ccc(F)cc1,3.74 µM
12,O=C1CCCN2N=C(SCC(=O)Nc3cccc(C(F)(F)F)c3)SC2=N1,4.37 µM
13,Cn1c(=O)n(C)c2cc([N+](=O)[O-])c(N3CCN(S(=O)(=O)c4ccc(C(C)(C)C)cc4)CC3)cc21,3.53 µM
14,COC(=O)c1ccc(N2CCN(S(=O)(=O)c3ccc(C)cc3)CC2)c([N+](=O)[O-])c1,3.88 µM
15,O=C(NCc1cccnc1)/C(=C/c1ccc(-c2ccc(Cl)cc2)o1)S(=O)(=O)c1ccccc1,5.35 µM
16,CCC(=O)c1ccc(OCC(O)Cn2c(C)nc3ccccc32)cc1 (configuration not stated),2.28 µM
17,CSc1nc(N)nc2c1ncn2CC(=O)N1CCN(Cc2c(C)cc(C)cc2C)CC1,0.526 µM
18,CCCC(=O)NC(c1ccc(OC)cc1)c1ccc2cccnc2c1O (configuration not stated),1.18 µM
19,CC(=O)OCC(=O)[C@@]1(O)CC[C@H]2[C@@H]3CCC4=CC(=O)CC[C@]4(C)[C@H]3C(=O)C[C@@]21C,28.3 µM
20,CCN1CCN(Cc2ccc(NC(=O)c3cc(NC(=O)c4cc5cccc(OC)c5o4)cc(OC)c3)cc2C(F)(F)F)CC1,10.2 µM and 9.77 µM
21,Cc1nc2ccccc2n1Cc1ccc(Cl)cc1,1.46 µM
22,CCCCCCCSc1cc(OC)c(CCNC)cc1OC,10.6 µM

row,Structure (SMILES),AC50
1,CCOC(=O)c1c(CSCc2ccccc2)oc2ccc(O)c(CN(C)C)c12,9.79 µM
2,CC(=O)N1c2ccc(S(=O)(=O)N3CCC(C(=O)Nc4cccc(F)c4)CC3)cc2CC1C (configuration not stated),4.54 µM
3,Cc1ccc(OC(=O)CCC(=O)Oc2ccc(C)cc2C)c(C)c1,3.51 µM
4,c1ccc(Nc2nc(NCC3CCCO3)c3ccccc3n2)cc1 (configuration not stated),21.7 µM
5,COc1ccc(CCN2C(=O)CSC2=Nc2ccc(C(C)C)cc2)cc1OC,4.49 µM
6,COCCC1CCCCN1C(=O)c1cc(COc2ccc(-n3cncn3)cc2)on1 (configuration not stated),0.57 µM
7,O=C(O)C1(Nc2ccccc2Cl)CCCC1,29.5 µM
8,CCC(=O)NC(c1ccc(Cl)cc1Cl)c1ccc2cccnc2c1O (configuration not stated),1.19 µM
9,O=S1(=O)C=C(Sc2nnc(-c3ccccc3)o2)c2ccccc21,1.7 µM
10,COc1ccc(OCc2cccc(C(=O)O)c2)cc1,1.39 µM
11,COc1ccccc1/C=C/CN1CCC(n2nccc2NC(=O)CCc2ccccc2)CC1,1.91 µM
12,c1ccc(CN=C(NCc2ccccc2)NCc2ccccc2)cc1,1.79 µM
13,Cc1cc(Nc2ccccc2)nc(NCc2ccccc2)n1,1.04 µM
14,CCOC(=O)c1ccc(NC(=O)c2nc(S(=O)(=O)Cc3ccccc3)ncc2Cl)cc1,0.572 µM
15,COCCn1c(SCC(=O)/C=C2\N(C)c3ccccc3C2(C)C)nnc1-c1ccncc1,2.65 µM
16,Cc1ccc([N+](=O)[O-])cc1NC(=O)Nc1cccc(F)c1,2.21 µM
17,CCC(O)C1CCN(C(=O)c2cc(COc3ccc4ncccc4c3)on2)CC1 (configuration not stated),0.505 µM
18,Cc1ccc2[nH]c3c(N4CCc5ccccc5C4)ncnc3c2c1,1.18 µM
19,C=CCOC(=O)c1[nH]c2c(c1C)C(=O)CC(c1cc(OC)c(OC)c(OC)c1)C2 (configuration not stated),1.83 µM
